Laboratory results as given in patent US20060172941A1, “Anti-angiogenic peptides and methods of use thereof” (priority 2004, published 2006).
Entries after “also recorded” stand apart in the source; their conditions may differ. Where no end group is shown, it is not given here. [ ]: non-standard residue; d: D form.

Assays:
[1] = Biological activity of D-amino acid versions of ST100,038 (test not specified); conditions: tested against a control
Protocol: D-amino acid peptides can be made by generating a D-amino acid peptide with the same sequence as a L-amino acid peptide or by preparing a retro inverso form of a peptide. ST100,045 (SEQ ID NO.: 31) has the same sequence as ST100,038 (SEQ ID NO.: 29) was tested against ST100,059 (SEQ ID NO.: 30) which is the retro inverso version of ST100,038 and a control.

[2] = Heparin binding activity, Hi Trap Heparin HP column, NaCl step elution; conditions: for [NaCl] for elution: heparin column, step gradient in 10 mM NaH2PO4 pH 7
Description: Liquid chromatography was used to determine the relative levels of heparin binding activity of the individual heparin binding domains and of the anti-angiogenic miniproteins that contains them. In this assay, the strength of the heparin binding activity is proportional to the amount of NaCl that is required to elute the peptide bound to the heparin column. Peptides with low binding activity are eluted with lower NaCl concentration, whereas higher concentrations of NaCl are required for peptides with higher binding activity.
Hi Trap Heparin HP column (1 ml, Amersham Biosciences) was equilibrated with 10 column volumes (CV) of equilibration (EQ) buffer=10 mM NaH2PO4 pH 7. All buffers were loaded onto columns via syringes. 500 μl fractions are collected (flow rate=1 ml/minute). 500 μg of peptide (1 mg/ml, resuspended in EQ buffer) was added to each column and the flow through was collected for analysis. The columns were then washed with 3 CV of EQ buffer. Peptides are then eluted with a step gradient of 500, 625, 750, 875 mM NaCl in EQ buffer, 2 CV per each step. A final step of 3 CV of 1000 mM NaCl in EQ buffer was collected in 500 μl fractions. The A210 nm was measured using EQ and elution buffers as blanks.

[3] = test system: Bovine Retinal Endothelial Cells (BRE); experiment: VEGF-mediated survival/proliferation of bovine retinal endothelial cells (WST1); type: cell-based; conditions: VEGF 25 ng/ml, 72 hours, FIG. 4 and 5
Protocol: (§1) The anti-angiogenic activities of the peptides were tested by measuring the level of inhibition of VEGF and bFGF mediated survival/proliferation of Bovine Retinal Endothelial Cells (BRE), Human Dermal Microvasculature Endothelial Cells, and Human Umbilical Vein Endothelial Cells, all of which are standard cell lines used to test anti-angiogenic compounds.
Bovine retinal endothelial (BRE) cells were maintained in Cambrex EG2 media. For non-adherent cell assays, on day one cells were starved for either 6 hours or overnight, then trypsinized and plated in 96-well plates in 100 μl of Optimem plus 1% fetal bovine serum (FBS). One hundred μl of Optimem plus 1% FBS was added to the wells containing, where appropriate, VEGF to a final concentration of 25 ng/ml, and the various peptides to final concentrations as described. For adherent cells, cells were plated in 96-well plates in complete media, allowed to adhere overnight, washed in starvation media (Optimem plus 1% FBS) and then starved during the day. At the end of the day, 100 μl of Optimem plus 1% FBS was added to the wells containing, where appropriate, VEGF to a final concentration of 25 ng/ml and the various peptides to final concentrations as described.
(§2) In all cases, after 72 hours incubation, the amount of live cells in each well was measured with the WST1 assay (Roche).

B16-F1 melanoma cells = experiment: Subcutaneous B16 melanoma tumor growth in vivo; parameters: species or system mouse; conditions: 20 mg/kg daily IP; for Inhibition of tumor growth: vs untreated controls, FIG. 12 and 14
Protocol: Because of the importance of the angiogenic process for tumorigenesis, miniproteins as described herein, were hypothesized to show good anti-tumor activity. The peptides of the invention were tested in an in vivo model of anti-tumor activity. This model compares the growth of subcutaneous B16 melanoma tumor in vivo either untreated or treated with various amount of miniproteins described in this application. This model is widely accepted in the art as a model to test the anti-tumor activity of compounds that inhibit tumor growth because they have anti-angiogenic activity.
Male C57BL/6 mice were obtained with a mean body weight of 20±2 g. Mouse B16-F1 melanoma cells were implanted subcutaneously (5×10^5 cell per animal). Peptides (formulated in water) were administered ip daily at the amount indicated starting the day after cells injection. In general, tumors became palpable around 9 days after injection of cells. Tumor were then measured every 2 days.

[4] = test system: RPMI-8226 human myeloma xenografts; experiment: RPMI-8226 human myeloma subcutaneous xenograft model; type: in vivo, mouse; conditions: scid mice, FIG. 16
Protocol: Anti-tumor efficacy of test peptides was evaluated against RPMI-8226 human myeloma xenografts implanted subcutaneously (sc) in severe compromised immunodeficient (scid) mice.
Studies generally consisted of randomly-assigned groups of 8 or 10 mice per group, which were implanted sc with myeloma fragments (30-40 mg). In addition to groups tested with test peptides, studies usually included a vehicle-treated control group and a positive control group treated with an agent known to be active in the RPMI-8226 model. In one type of schedule, mice were treated IP with either vehicle or test peptides starting one day after tumor implantation (implantation day defined as Day 0). Test peptides and vehicle were generally administered IP daily for 3-4 weeks.
Dosing solutions of the test peptides were prepared weekly and kept at −20° C. between injections. […] Each tumor was measured by caliper in two dimensions and converted to tumor mass using the formula for a prolate ellipsoid (a X b^2/2), where a is the longer dimension and b is the smaller dimension, and assuming unit density (1 mm^3=1 mg). Tumor measurements were recorded twice weekly. Body weights were also recorded twice weekly. Anti-tumor activity was assessed by the delay in tumor growth of the treated groups in comparison to the vehicle-treated control group, partial and complete regressions, and tumor-free survivors. […]

[5] = test system: Human Dermal Microvasculature Endothelial Cells; experiment: VEGF-mediated survival/proliferation of human dermal microvasculature endothelial cells; type: cell-based; conditions: 30, 100, and 200 μg/ml, FIG. 8
Protocol: as §1, §2
(§3) In a further experiment, the anti-angiogenic activity of peptide ST100,061 (SEQ ID NO.: 3), a derivative of ST100,032 (SEQ-ID NO.: 1), at concentrations of 30, 100, and 200 μg/ml was tested by measuring the level of inhibition of VEGF and bFGF mediated survival/proliferation in human dermal microvasculature endothelial cells.

[6] = test system: Human Dermal Microvasculature Endothelial Cells; experiment: bFGF-mediated survival/proliferation of human dermal microvasculature endothelial cells; type: cell-based; conditions: 30, 100, and 200 μg/ml, FIG. 8
Protocol: as §1, §2, §3

L1210 = experiment: Tumor cell proliferation (WST-1), L1210; type: cell-based, mouse; conditions: FIG. 11
Protocol: Peptides to be tested were prepared at a stock concentration of 10 mM in sterile phosphate buffered saline. Cancer cell lines obtained from the American Type Culture Collection (MG-63, HT1080, A498, BxPC3, 786-0, PC-3, B16F1, B16F10, P388D1, Jurkat, MOLT4, THP-1, U-937, L1210, RPMI 8226, NCI H929, U266B1, K562) were cultured under appropriate conditions as described in the literature. Cell culture media and reagents were obtained from ATCC (Manassas, Va.), Invitrogen (Carlsbad, Calif.) or Mediatech (Herndon, Va.). Exponentially growing cultures were used for cell proliferation assays. Adherent cells were plated at a concentration of 100000 cells per milliter in growth media overnight (18-24 h) and treated the next day in a low serum media (growth media with 1% FBS for MG-63, HT1080, A498, BxPC3, PC-3, B16F1, B16F10. 786-0 cells were treated in media with 5% FBS). Suspension cell lines (P388D1, Jurkat, MOLT4, THP-1, U-937, L1210, RPMI 8226, NCI H929, U266B1, and K562) were diluted to a concentration of 100,000 cells per ml and treated on the same day with peptides. Peptides were diluted in treatment media and cells were treated for 48 or 72 hours depending on the cell line. Each dose was tested in triplicate for each experiment, and experiments were repeated for a minimum of three discrete times. After incubation, the relative number of cells was determined using WST-1 (Roche Applied Science). A 9.5 μl aliquot of WST-1 was added to each well. The plate was immediately read at 440 nm using a Bio-Tek PowerWave XS microplate reader, incubated for 2-3 hours at 37° C. and then read again. Cell proliferation was determined as the percent of the control cell proliferation. The absorbance of each well at time 0 was subtracted from the value of the final reading. Afterwards the blank values were averaged and subtracted from each test and control value. Finally, each test absorbance was divided by the average of the control absorbances and multiplied by 100 to obtain the percent of control. […]

[7] = test system: Human Umbilical Vein Endothelial Cells; experiment: bFGF-mediated survival/proliferation of human umbilical vein endothelial cells (WST1); type: cell-based; conditions: FIG. 6, 9, 10, 17
Protocol: as §1
Human umbilical cord endothelial (HUVEC) cells were maintained in Cambrex EGM-2MV media. On day one, cells were starved overnight in 1% FBS in M200 media (Cascade Biologicals). The morning after, the media were replaced with serum-free media (control) or media containing 25 ng/ml of human VEGF165 and the various peptides to final concentrations as described.
as §2

tumor cells = experiment: Ability to induce tumor cell death (general statement); type: cell-based
Protocol: Peptides to be tested were prepared at a stock concentration of 10 mM in sterile phosphate buffered saline. Cancer cell lines obtained from the American Type Culture Collection (MG-63, HT1080, A498, BxPC3, 786-0, PC-3, B16F1, B16F10, P388D1, Jurkat, MOLT4, THP-1, U-937, L1210, RPMI 8226, NCI H929, U266B1, K562) were cultured under appropriate conditions as described in the literature. Cell culture media and reagents were obtained from ATCC (Manassas, Va.), Invitrogen (Carlsbad, Calif.) or Mediatech (Herndon, Va.). Exponentially growing cultures were used for cell proliferation assays. […] After incubation, the relative number of cells was determined using WST-1 (Roche Applied Science). […] The plate was immediately read at 440 nm using a Bio-Tek PowerWave XS microplate reader, incubated for 2-3 hours at 37° C. and then read again. Cell proliferation was determined as the percent of the control cell proliferation. The absorbance of each well at time 0 was subtracted from the value of the final reading. […] Finally, each test absorbance was divided by the average of the control absorbances and multiplied by 100 to obtain the percent of control.

[8] = test system: L1210 murine leukemia cells; experiment: L1210 murine leukemia intravenous model, survival; type: in vivo, mouse; conditions: dosed IP, FIG. 15a
Protocol: Antitumor activity of test peptides, administered intraperitoneally (IP), were evaluated against L1210 murine leukemia cells implanted intravenously (IV) in DBA/2 mice.
Studies generally consisted of randomly-assigned groups of 8 mice per group, which were inoculated IV with 1×10^5 cells per mouse from an in vivo leukemia cell line. In addition to groups tested with test peptides, studies usually included a vehicle-treated control group and a positive control group treated with an agent known to be active in the L1210 leukemia model. Starting one day after tumor inoculation (inoculation day defined as Day 0), mice were treated IP with either vehicle or test peptides in various schedules. Generally this consisted of treatment every other day for approximately 1 week (e.g., Days 1, 3, 5 and 7). A positive agent (e.g., cyclophosphamide) was usually given as a single IP injection on Day 1. All dosing solutions were prepared on each day of treatment. Survival was monitored daily and body weights were measured twice weekly. Anti-tumor activity was assessed by the increase in lifespan of the treated groups in comparison to the vehicle-treated control group. Studies with the L1210 leukemia model were limited to 30 days.

| [NaCl] for elution [2] | Sequence | biological activity [1] | Inhibition of tumor growth (B16-F1 melanoma cells) | Inhibition of proliferation of mouse leukemia L1210 cells (L1210) | Inhibition of bFGF-mediated survival [7] | also measured |
| --- | --- | --- | --- | --- | --- | --- |
|  | ATSLPPHSSQSP (also: D-amino acids noted, form not shown; listed as Homo sapiens) [ST100,045] | Only the retro inverso form of ST100,038, (ST100,059; SEQ ID NO.: 30) was found to be biologically active |  |  |  |  |
| 0 mM | PSQSSHPPLSTA ([dP][dS][dQ][dS][dS][dH][dP][dP][dL][dS][dT][dA]; listed as Homo sapiens) [ST100,059, retro inverso version of ST100,038] | biologically active | clearly inhibit tumor growth |  |  | Inhibition of VEGF-mediated survival/proliferation [3]: VEGF stimulation was inhibited with increasing doses; P (ANOVA) of tumor growth inhibition (B16-F1 melanoma cells; FIG. 12): < 0.05; Inhibition of tumor growth ([4]; 100 mg/kg daily IP): does not inhibit tumor growth |
|  | PYDGRGDSVVYGLRKKKAARGRRAARGRR (listed as Homo sapiens) [ST100,061] |  | may be less active |  |  | Inhibition of VEGF mediated survival/proliferation [5]: effective in inhibiting both VEGF and bFGF; Inhibition of bFGF mediated survival/proliferation [6]: effective in inhibiting both VEGF and bFGF |
|  | RLGYVVSDGRGDYP (listed as Homo sapiens) [ST100,077] |  |  | Neither ST100,077 (SEQ ID NO.: 16) encoding the integrin binding domain or ST100,078 (SEQ ID NO.: 17) encoding the heparin binding domain or the simple combination of the two peptides (ST100,077 and ST100,078) blocked cell proliferation or induced cell death |  |  |
| 875 mM | RRGRAARRGRAAKKK (listed as Homo sapiens) [ST100,078] |  |  | Neither ST100,077 (SEQ ID NO.: 16) encoding the integrin binding domain or ST100,078 (SEQ ID NO.: 17) encoding the heparin binding domain or the simple combination of the two peptides (ST100,077 and ST100,078) blocked cell proliferation or induced cell death | not as potent |  |

| Sequence | [NaCl] for elution [2] | biological activity [1] | Inhibition of tumor growth (B16-F1 melanoma cells) | Inhibition of proliferation of mouse leukemia L1210 cells (L1210) | Inhibition of bFGF-mediated survival [7] | also measured |
| --- | --- | --- | --- | --- | --- | --- |
| RRGRAARRGRAAKKKRLGYVVSDGRGDYP [ST100,064, retro-inverso form of ST100,061] | 875 mM |  |  | able to block cell proliferation and induce cell death | can inhibit bFGF mediated survival as effectively as ST100,061; also recorded: the most active in inhibiting bFGF stimulation | heparin binding activity (comparison in words) [2]: much more active; also recorded: bind less strongly than ST100,082; ability to induce tumor cell death (comparison in words) (tumor cells): much more active; Survival ([8]; DBA/2 mice): statistically significant increases in survival; mice (cured mice) that survived longer than 30 days [8]: Sixty to eighty; Inhibition of tumor growth ([4]; 25 mg/kg daily IP): able to inhibit tumor growth |
